Test results reported in ChEMBL document CHEMBL1136603, “Synthesis and biological evaluation of novel indoloazepine derivatives as non-peptide vasopressin V2 receptor antagonists” (Bioorg Med Chem Lett, 2003).

What was measured:
Vasopressin V2 receptor [1] = target: T1, Vasopressin V2 receptor (Homo sapiens, UniProt P30518); test: Displacement of [3H]AVP from human V2 receptors expressed in HEK293 cells; format: cell-based
Vasopressin V2 receptor [2] = target: T1, Vasopressin V2 receptor; test: Inhibitory activity of the human V2 receptor was assessed by the accumulation of cAMP in transfected HEK293 cells.; format: functional, cell-based
Vasopressin V2 receptor [3] = target: T1, Vasopressin V2 receptor; test: Compound was assessed for their ability to displace [3H]AVP from human V2 receptors transfected into HEK293 cells at 0.1 uM concentration; format: cell-based
Vasopressin V2 receptor [4] = target: Vasopressin V2 receptor (Rattus norvegicus, UniProt Q00788); test: Binding affinity towards V2 receptor
Chain of Vasopressin V2 receptor (Rattus norvegicus, UniProt Q00788) (Q00788 whole entry): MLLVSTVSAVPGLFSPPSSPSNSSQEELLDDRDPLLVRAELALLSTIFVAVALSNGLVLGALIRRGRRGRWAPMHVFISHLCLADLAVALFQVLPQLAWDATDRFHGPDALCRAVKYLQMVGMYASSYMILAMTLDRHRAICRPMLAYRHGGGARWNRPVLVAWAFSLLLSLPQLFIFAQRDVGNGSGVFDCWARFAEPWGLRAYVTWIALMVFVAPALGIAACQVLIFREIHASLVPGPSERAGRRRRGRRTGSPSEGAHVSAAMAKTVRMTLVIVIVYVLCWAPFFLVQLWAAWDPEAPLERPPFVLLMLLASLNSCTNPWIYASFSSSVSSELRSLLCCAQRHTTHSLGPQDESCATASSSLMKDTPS

Vasopressin V1a receptor = Vasopressin V1a receptor (Homo sapiens, UniProt P37288); test: Binding affinity towards VIa receptor
Chain of Vasopressin V1a receptor (P37288 whole entry): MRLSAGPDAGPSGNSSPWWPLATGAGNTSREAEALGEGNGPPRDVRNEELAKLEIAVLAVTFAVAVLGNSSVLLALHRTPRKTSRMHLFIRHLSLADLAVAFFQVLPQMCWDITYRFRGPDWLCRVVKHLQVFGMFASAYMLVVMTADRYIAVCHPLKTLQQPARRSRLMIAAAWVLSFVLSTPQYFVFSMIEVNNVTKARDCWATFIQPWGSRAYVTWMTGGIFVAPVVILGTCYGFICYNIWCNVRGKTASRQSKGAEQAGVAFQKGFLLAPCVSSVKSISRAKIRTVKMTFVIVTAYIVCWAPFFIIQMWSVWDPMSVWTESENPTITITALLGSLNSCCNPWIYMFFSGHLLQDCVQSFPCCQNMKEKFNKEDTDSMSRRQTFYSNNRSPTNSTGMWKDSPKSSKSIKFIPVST

T1 sequence (P30518 whole entry): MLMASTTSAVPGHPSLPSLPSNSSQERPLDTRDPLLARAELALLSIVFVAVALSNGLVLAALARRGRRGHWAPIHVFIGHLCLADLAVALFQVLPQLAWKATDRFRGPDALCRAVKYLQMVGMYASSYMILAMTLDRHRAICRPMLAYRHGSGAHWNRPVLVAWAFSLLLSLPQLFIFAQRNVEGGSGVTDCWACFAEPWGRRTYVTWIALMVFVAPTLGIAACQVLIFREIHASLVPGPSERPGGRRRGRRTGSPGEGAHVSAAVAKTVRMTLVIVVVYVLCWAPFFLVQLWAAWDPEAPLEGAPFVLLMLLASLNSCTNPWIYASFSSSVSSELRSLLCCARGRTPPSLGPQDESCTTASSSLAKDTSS

Structure (SMILES) | IC50 (Vasopressin V2 receptor [1]) | further results
Cc1ccc(-c2ccccc2C(=O)Nc2ccc(C(=O)N3CCCc4c[nH]c5cccc3c45)cc2)cc1 | 11 nM | IC50 (Vasopressin V2 receptor [2]): 70 nM
O=C(Nc1ccc(C(=O)N2CCCc3c(S(=O)(=O)O)[nH]c4cccc2c34)cc1Cl)c1ccccc1-c1ccccc1 | 12 nM | –
Cc1ccc(F)cc1C(=O)Nc1ccc(C(=O)N2CCCc3c[nH]c4cccc2c34)cc1 | 190 nM | –
CCCn1cc2c3c(cccc31)N(C(=O)c1ccc(NC(=O)c3ccccc3-c3ccc(C)cc3)cc1)CCC2 | – | inhibition (Vasopressin V2 receptor [3]): < 30%
Cc1ccccc1C(=O)Nc1ccc(C(=O)N2CCCc3c[nH]c4cccc2c34)cc1 | – | inhibition (Vasopressin V2 receptor [3]): < 30%
O=C(Nc1ccc(C(=O)N2CCCc3c(Cl)[nH]c4cccc2c34)cc1)c1ccccc1-c1ccccc1 | 44 nM | –
O=C(Nc1ccc(C(=O)N2CCCc3c[nH]c4cccc2c34)cc1)c1ccccc1-c1ccccc1 | 20 nM | IC50 (Vasopressin V2 receptor [2]): 70 nM; IC50 (Vasopressin V2 receptor [4]): 1 nM; IC50 (Vasopressin V1a receptor): 3100 nM
Cc1ccc(-c2ccccc2C(=O)Nc2ccc(C(=O)N3CCCc4cn(Cc5ccccc5)c5cccc3c45)cc2)cc1 | – | inhibition (Vasopressin V2 receptor [3]): < 30%
O=C(Nc1ccc(C(=O)N2CCCc3c[nH]c4cccc2c34)c(Cl)c1)c1ccccc1-c1ccccc1 | 50 nM | IC50 (Vasopressin V2 receptor [2]): 330 nM
CC(=O)n1cc2c3c(cccc31)N(C(=O)c1ccc(NC(=O)c3ccccc3-c3ccc(C)cc3)cc1)CCC2 | 170 nM | –
Cc1ccc(-c2ccccc2C(=O)Nc2ccc(C(=O)N3CCCc4cn(C)c5cccc3c45)cc2)cc1 | 210 nM | –
O=C(Nc1ccc(C(=O)N2CCCc3c[nH]c4cccc2c34)cc1Cl)c1ccccc1-c1ccccc1 | 15 nM | –
O=C(Nc1ccc(C(=O)N2CCCC3C(=O)Nc4cccc2c43)cc1)c1ccccc1-c1ccccc1 (configuration not stated) | 8 nM | –
Cc1ccc(F)cc1C(=O)Nc1ccc(C(=O)N2Cc3cccn3Cc3ccccc32)c(Cl)c1 [LIXIVAPTAN] | – | IC50 (Vasopressin V2 receptor [2]): 91 nM
Cc1c(F)cccc1C(=O)Nc1ccc(C(=O)N2CCCc3c[nH]c4cccc2c34)cc1 | 180 nM | –
CCOC(=O)Cn1cc2c3c(cccc31)N(C(=O)c1ccc(NC(=O)c3ccccc3-c3ccc(C)cc3)cc1)CCC2 | 550 nM | –
O=C(Nc1ccc(C(=O)N2CCCc3c(S(=O)(=O)O)[nH]c4cccc2c34)cc1)c1ccccc1-c1ccccc1 | 13 nM | –
